Measured values as given in ChEMBL document CHEMBL5728678, “Heteroaryl compounds as BTK inhibitors and uses thereof” (2021).
pIC50: −log10 of the molar value.

Experiments:
[1] = molecular target: Tyrosine-protein kinase BTK (Homo sapiens, UniProt Q06187); test: Microfluidic Off-Chip Mobility Shift Assay Protocol for Potency Assessment Against BTK Enzyme: Briefly, 2.5× stocks of full-length human BTK (08-080) from CarnaBio USA, Inc., Natick, Mass., 1.6×ATP and appropriate kinKDR peptide substrate (FITC-AHA-[…]-NH2; developed in-house) were prepared in kinase reaction buffer consisting of 25 mM MgCl2, 0.015% Brij-35 (30%), 100 mM HEPES, pH 7.5, and 10 mM DTT. 5 uL of enzyme buffer and 7.5 uL of ATP/kinKDR peptide substrate mix were added to Matrix (#115304) 384-well, sterile, polypropylene plates (Thermo Fisher Scientific, Hudson, N.H.) with 125 nL of serially diluted compounds prepared in 100% DMSO, and incubated for 90 min. at 27° C. Following the incubation period, reactions were stopped by adding 60 uL stop buffer consisting of 100 mM HEPES, pH 7.5, 0.015% Brij-35 (30%), 0.277% Coating Reagent #3 (Caliper Life Sciences, Mountain View, Calif.), 5% DMSO. Stopped reactions were monitored at −2 PSI, −3000 V/−700 V in a LabChip 3000 plate reader from Caliper Life Sciences, a PerkinElmer Company (Hopkinton, Mass.), and the activity was measured by off-chip mobility shift assay measuring the charge/mass difference between substrate and product resulting from peptide phosphorilation. IC50 and efficacy were determined by plotting log [Inhibitor] vs. % Activity in GeneData Screener (Basel. Switzerland).
[2] = molecular target: Tyrosine-protein kinase BTK (Homo sapiens, UniProt Q06187, C481S); test: Microfluidic Off-Chip Mobility Shift Assay Protocol for Potency Assessment Against BTK C481S Enzyme: The protocol below describes a microfluidic, off-chip mobility shift kinase assay to measure inherent potency of compounds against BTK C481S enzyme. The mechanics of the assay platform are described by the vendor (PerkinElmer, Hopkinton, Mass.) on their website at the following URL: http://caliperls.com.Briefly, 2.5× stocks of His-TEV-hsBTK(328-659)(C481S) from the Merck Serono Protein Purification Laboratory in Darmstadt, Germany (PCS, Q27/234), 1.6×ATP and appropriate KinKDR peptide substrate (FITC-AHA-[…]-NH2; Tufts University Core Facility custom synthesis) were prepared in kinase reaction buffer consisting of 25 mM MgCl2, 0.015% Brij-35 (30%), 100 mM HEPES, pH 7.5, and 10 mM DTT.5 uL of enzyme buffer and 7.5 uL of ATP/KinKDR peptide substrate mix were added to Matrix (#4315) 384-well, sterile, flat-bottom polypropylene plates (Thermo Fisher Scientific, Hudson, N.H.) with 125 nL of serially diluted compounds prepared in 100% DMSO, and incubated for 90 min. at 25° C. Following the incubation period, reactions were terminated by adding 65 uL quench buffer consisting of 100 mM HEPES, pH 7.5, 0.015% Brij-35 (30%), 0.277% Coating Reagent #3 (PerkinElmer, Mountain View, Calif.), 5% DMSO. Terminated reactions were monitored at −2 PSI, −3000 V/−700 Volts in a LabChip 3000 plate reader from Caliper Life Sciences, a PerkinElmer Company (Hopkinton, Mass.), and the activity was quantified by laser-induced fluorescence measuring the charge/mass difference between substrate and product resulting from peptide phosphorylation. IC50 and efficacy were determined by plotting log [Inhibitor] vs. % Activity in GeneData Screener (Basel, Switzerland).
Chain of Tyrosine-protein kinase BTK (Homo sapiens, UniProt Q06187, C481S) (Q06187 2-659 C481S limits assumed): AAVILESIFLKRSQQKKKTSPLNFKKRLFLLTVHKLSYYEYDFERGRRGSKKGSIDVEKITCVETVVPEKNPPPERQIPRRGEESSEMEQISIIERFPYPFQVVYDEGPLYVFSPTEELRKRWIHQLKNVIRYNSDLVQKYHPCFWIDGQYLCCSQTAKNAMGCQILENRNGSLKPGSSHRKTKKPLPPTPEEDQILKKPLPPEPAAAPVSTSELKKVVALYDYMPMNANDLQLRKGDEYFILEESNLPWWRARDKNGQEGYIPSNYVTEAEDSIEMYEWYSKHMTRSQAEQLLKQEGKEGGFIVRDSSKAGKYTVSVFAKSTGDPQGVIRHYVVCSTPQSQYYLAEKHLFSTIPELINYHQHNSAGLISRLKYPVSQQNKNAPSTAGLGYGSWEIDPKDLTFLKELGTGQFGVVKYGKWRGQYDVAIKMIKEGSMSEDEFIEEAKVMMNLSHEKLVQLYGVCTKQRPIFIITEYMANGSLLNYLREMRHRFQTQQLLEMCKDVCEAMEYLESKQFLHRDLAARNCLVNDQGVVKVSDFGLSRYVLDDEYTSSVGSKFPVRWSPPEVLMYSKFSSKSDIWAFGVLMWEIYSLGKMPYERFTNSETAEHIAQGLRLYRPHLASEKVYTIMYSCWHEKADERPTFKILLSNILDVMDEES

Chain of Tyrosine-protein kinase BTK (Homo sapiens, UniProt Q06187) (Q06187 whole entry): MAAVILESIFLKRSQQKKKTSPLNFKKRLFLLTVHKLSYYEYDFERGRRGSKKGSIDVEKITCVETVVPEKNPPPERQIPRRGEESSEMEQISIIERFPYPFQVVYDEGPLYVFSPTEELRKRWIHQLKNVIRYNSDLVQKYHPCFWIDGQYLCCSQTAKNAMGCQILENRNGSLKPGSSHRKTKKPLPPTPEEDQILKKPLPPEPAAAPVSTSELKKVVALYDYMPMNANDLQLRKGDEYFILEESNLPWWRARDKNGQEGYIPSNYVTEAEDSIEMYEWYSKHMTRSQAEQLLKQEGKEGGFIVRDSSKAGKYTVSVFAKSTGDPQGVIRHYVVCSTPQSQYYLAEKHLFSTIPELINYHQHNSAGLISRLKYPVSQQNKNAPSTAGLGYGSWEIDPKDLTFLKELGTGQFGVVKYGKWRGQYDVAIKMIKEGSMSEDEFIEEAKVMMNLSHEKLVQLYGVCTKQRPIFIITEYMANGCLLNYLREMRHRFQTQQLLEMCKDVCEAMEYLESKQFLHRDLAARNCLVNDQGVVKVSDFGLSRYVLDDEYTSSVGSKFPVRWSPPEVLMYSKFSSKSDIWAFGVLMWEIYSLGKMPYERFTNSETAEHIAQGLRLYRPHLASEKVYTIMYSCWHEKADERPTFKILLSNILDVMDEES

SMILES | pIC50 [1] | pIC50 [2]
CC(C)(C)c1noc(C(=O)NCc2ccc(-c3ccnc4[nH]c(C5=CCNCC5)nc34)cc2F)n1 | > 7.00 | –
CCn1cc(-c2nc3c(-c4ccc(CNC(=O)c5cc(C(C)(C)C)on5)c(F)c4)ccnc3[nH]2)cn1 | > 7.00 | –
Cn1cc(-c2nc3c(-c4cccc(CNC(=O)c5noc(C(C)(C)C)n5)c4)ccnc3[nH]2)cn1 | – | > 7.00
Cn1cc(-c2nc3c(-c4ccc(CNc5nccc6c5OCCN6C(=O)OC(C)(C)C)c(F)c4)ccnc3[nH]2)cn1 | < 5.30 | –
CC(C)(C)c1noc(C(=O)NCc2ccc(-c3ccnc4[nH]c([C@@H]5C[C@H]5c5ccccc5)nc34)cc2F)n1 | < 5.30 | –
CC(C)(C)c1nc(C(=O)NCc2ccc(-c3ccnc4[nH]c(-c5cnn(C6COC6)c5)nc34)cc2F)no1 | – | > 7.00
CC(C)(C)c1nc(C(=O)NCc2ccc(-c3ccnc4[nH]c(-c5cnn(C6CCOCC6)c5)nc34)cc2F)no1 | – | > 7.00
